For assay [1], the system named is CD8^+ T-lymphocytes. As to the kind of experiment: Proliferation after activation (CFSE dilution, viable cell number). Format: cell-based, mouse. As to conditions: 0.5 mM; for proliferation following activation: with IL-2. The protocol: Data are representative of 4 mice.
Cells were then treated with 0.5 mM S-2HG-octyl ester, 0.5 mM R-2HG-octyl ester or vehicle and counting was performed at indicated time points after initiation of treatment. n=8 mice per condition.
(§1) Cells were counted on an ADAM-MC automated cell counter (NanoEnTek) and viability was assessed by the exclusion of propidium iodide. Cell volume was determined using a Z2 Coulter counter (Beckman Coulter).

The test system of the next assay is OT-I CD8^+ T-lymphocytes. Nature of the assay: Survival in the absence of IL-2 supplementation. As to conditions: 0.5 mM. Format: cell-based, mouse. Here is the method:
OT-I CD8^+ T-lymphocytes were incubated with target and control cells for 4 hours. n=3 mice per condition. […]
as §1

The subject of a further assay is mTOR. As to the kind of experiment: mTOR signalling immunoblot. Conditions: 100 μM to 500 μM. The class given is cell-based, mouse. The protocol:
(§2) Nuclear and cytosolic fractions were prepared from cells with the NE-PER kit (Thermo Scientific) and separated by SDS-PAGE. Proteins were transferred to PVDF membranes and then blocked in 5% milk prepared in phosphate-buffered saline (PBS) plus 0.05% Tween 20. Membranes were then incubated with primary antibodies overnight at 4° C. and horseradish peroxidase (HRP)-conjugated secondary antibodies for 1 h the next day. The following primary antibodies were used at a dilution of 1:1000: HIF1α (Novus), HIF2α (Novus), PDH-E1α (Abcam), PDH-E1α pS232 (Calbiochem), LaminB1 (Abcam), HDAC1 (Abcam), β-tubulin (Abcam), 4E-BP1 (Cell Signalling), phospho-4E-BP1 (S65) (Cell Signalling), phospho-4E-BP1 (T37/T46) (Cell Signalling) S6K (Cell Signalling), phopho-S6K (T389) (Cell Signalling), phopho-S6K (S371) (Cell Signalling).
In general terms: In western blotting, separated proteins are transferred to a membrane and probed.

The next assay concerns HIF-1α. Nature of the assay: Immunoblot of nuclear fractions for HIF-1α in treated CD8+ T-lymphocytes. As to conditions: for abundance of HIF-1α protein at 7 days of continuous treatment: 0.5 mM. Format: cell-based, mouse. The protocol: (§3) FIG. 6A showns immunoblot analysis for HIF-1α, HDAC1, phospho-PDH E1α (S232) and total PDH-E1α in response to increasing concentrations of S-2HG-octyl ester or R-2HG-octyl ester, or 10 mM of the free acid forms of S-2HG or R-2HG for 16 hours. Cells were activated for 48 h with αCD3+αCD28 antibodies and then expanded for a further 4 days in the presence of IL-2 followed by treatment with the indicated concentration of S-2HG-octyl ester or R-2HG octyl ester, or 10 mM of the free acid forms of S-2HG or R-2HG for 16 hours. The arrow indicates HIF-1α protein.
(§4) The arrow indicates HIF-2a protein.
as §2

The test system of the next assay is human CD8^+ T cells. Nature of the assay: Experiments with human CD8+ T cells (CCR7, CD45RO flow cytometry). Format: cell-based. As to conditions: 14 days; 600 μM S-2HG-octyl ester or 800 μM R-2HG-octyl ester versus vehicle. Here is the method:
Numbers in dot plots represent the percentage of cells present in the corresponding quadrant defined by CCR7 and CD45RO expression.
Human CD8^+ T cells were magnetically isolated from blood of healthy donors after gradient centrifugation. Incubation with microbeads conjugated to anti-human CD8 antibodies (Miltenyi 130-097-057) was followed by magnetic bead isolation on a MACS column. Purified human CD8^+ T cells were activated with αCD3 and αCD28 coated beads (Dynabeads, 111.61D) and expanded in the presence of recombinant human IL-2 (30 Ul/mL, Roche 11011456001).
Cells were stained and acquired on a Fortessa (BD Biosciences). The following fluorophores and fluorophore-conjugated antibodies were used: anti-CD62L (Biolegend, MEL-14), anti-CD44 (Biolegend, IM7), anti-CD8a (Biolegend, 53-6.7), anti-CD45.1 (Biolegend, A20), anti-CD45.2 (Biolegend, 104), anti-CD127 (Biolegend, A7R34), anti-KLRG1 (Biolegend, 2F1/KLRG1), anti-CD19 (Biolegend, 6D5), anti-Bcl-2 (Biolegend, BCL/10C4), Eomes (eBioscience, Danlimag), PD-1 (Biolegend, 29F.1A12), […], H-2Kb/SIINFEKL Pentamer-PE (Proimmune, F093-2A), CFSE (Life Technologies), LIVE/DEAD Violet (Life Technologies), PI-AnnexinV (Biolegend, 640928), anti-Bcl-xl-PE (Cell Signalling Technologies, 54H6). For staining of nuclear-located marker Eomes, the Transcription Factor Staining Buffer Set (eBioscience) was used, according to the manufacturer's instructions. For staining of intracellular cytokines, OT-I cells were re-stimulated with SIINFEKL peptide for 4 h with GolgiStop solution (BD). For ^1H-NMR experiments, CD8^+ T-lymphocytes were sorted from total splenocytes by immunostaining with anti-mouse CD8-AF647 (Biolegend) on a MoFlo (Beckman Coulter). Cells were then activated and cultured as described above. For staining of human T cells, CD8^+ T cells were incubated at 37 C for 30 minutes in the presence of anti-CCR7 antibody (eBioscience 12-1979-41), followed by staining with anti-CD45RO antibody (Biolegend, UCHL1).
For experiments with human CD8^+ T cells, cells were magnetically isolated, activated and plated at a concentration of 1×10^6 cells per mL in the presence of 30 UI/mL of recombinant human IL-2. […] On day 14, the surface expression of CCR7 and CD45RO on alive CD8^+ cells was measured by flow cytometry.
For orientation: Flow cytometry measures light scatter and fluorescence of single cells or particles in a stream.

Assay [2] concerns CD8^+ T-lymphocytes. As to the kind of experiment: Glucose, lactate and VEGF measurements in media. The class given is cell-based, mouse. As to conditions: 0.5 mM, 16 hours. The protocol:
Each dot represent one donor mouse n≥16 mice. P-values are shown for each panel; one-way ANOVA for multiple comparisons (A, B and C). n.s.=non significant.
CD8^+ T-cells were expanded for 4 days and then treated for 16 h with S-2HG octyl ester or R-2HG octyl ester. Glucose and lactate levels in culture medium were measured with a Dade-Behring Dimension RXL analyser. Changes in metabolite concentrations relative to fresh media were normalized to viable cell counts. VEGF, IL-2 and IFN-γ protein levels in media were determined using the following kits from MesoScale Discovery: K150BMC-2 for VEGF, K15048D-2 for IFN-γ and K152QQD-2 for IL-2. Values were normalized to viable cell counts.

The subject of the next assay is PDH-E1α. As to the kind of experiment: Immunoblot for phospho-PDH E1α (S232) in treated CD8+ T-lymphocytes. Conditions: 16 hours treatment. Format: cell-based, mouse. Here is the method: as §3, §2
The next assay deals with HIF-2a. As to the kind of experiment: Immunoblot on nuclear extracts for HIF-2a in treated CD8+ T-lymphocytes. Format: cell-based, mouse. As to conditions: 0.5 mM, 1 day or 7 days of treatment. The protocol:
as §4, §2

Structures are written as SMILES.

As to `CCCCCCCCOC(=O)[C@H](O)CCC(=O)O` [R-2HG-octyl ester], in the assay with CD8^+ T-lymphocytes [1], the “restriction in proliferation compared with S-2HG-octyl ester” value is on record as “less pronounced” and the proliferation following activation entry is listed as “decreasing proliferation”. Moreover, the “ability to survive in the absence of IL-2 supplementation” value in the assay on OT-I CD8^+ T-lymphocytes is recorded as “elevated ability to survive”. For the same compound, the mTOR signalling result in the assay on mTOR is listed as “does not inhibit”. Moreover, the “abundance of HIF-1α protein at 7 days of continuous treatment” value with HIF-1α is “increase in abundance is seen”. For the same compound, in the assay on human CD8^+ T cells, the “expression of CCR7” value is recorded as “induced the expression” and the “expression of CD45RO” value is recorded as “induced the expression”. For the same compound, in the assay with CD8^+ T-lymphocytes [2], the VEGF production entry is “elevated”, the glucose uptake entry is on record as “elevated” and the lactate secretion entry was “elevated”. For the same compound, in the assay on PDH-E1α, the “phosphorylation of PDH-E1a” value is on record as “increased”. The “abundance of HIF-2a protein” value in the assay on HIF-2a is “increase in the abundance”.
Regarding `CCCCCCCCOC(=O)[C@@H](O)CCC(=O)O` [S-2HG-octyl ester, S-2HG octyl ester], the proliferation following activation result in the assay with CD8^+ T-lymphocytes [1] is reported as “decreasing proliferation”. Also, in the assay with OT-I CD8^+ T-lymphocytes, the “ability to survive in the absence of IL-2 supplementation” value is reported as “elevated ability to survive”. For the same compound, in the assay on mTOR, the mTOR signalling entry is “does not inhibit”. Also, the “abundance of HIF-1α protein at 7 days of continuous treatment” value in the assay with HIF-1α is “increase in abundance is seen”. Further, in the assay on HIF-1α (increasing concentrations of octyl ester, 16 hours, activated CD8+ T-lymphocytes), the HIF-1α stabilization result is recorded as “stabilized”. Besides, in the assay with human CD8^+ T cells, the “expression of CCR7” value was “induced the expression” and the “expression of CD45RO” value is on record as “induced the expression”. In the assay on CD8^+ T-lymphocytes [2], the VEGF production entry is “elevated”, the glucose uptake entry is reported as “elevated” and the lactate secretion result is “elevated”. Moreover, the “phosphorylation of PDH-E1a” value in the assay on PDH-E1α is listed as “increased”. Besides, in the assay with HIF-2a, the “abundance of HIF-2a protein” value is reported as “increase in the abundance”.

The values above are taken from patent US20190316085A1, “Methods Of T-Lymphocyte Expansion” (Cambridge Enterprise Limited, priority 2015, published 2019).
